Assay results taken from ChEMBL document CHEMBL6134767, “Advances in antibacterial agents for Mycobacterium fortuitum” (2025).
≈ marks a conversion by molar mass, not a printed value.

Legend:
Format in all cases: functional
[1] = system: Mycolicibacterium fortuitum; assay: Antimycobacterial activity against Mycobacterium fortuitum ATCC 6841
[2] = system: Mycolicibacterium fortuitum; assay: Antibacterial activity against Mycobacterium fortuitum
[3] = system: Mycolicibacterium fortuitum; assay: Antimycobacterial activity against Mycobacterium fortuitum ATCC 35931 assessed as reduction in bacterial growth
[4] = system: Mycolicibacterium fortuitum; assay: Antimycobacterial activity against Mycobacterium fortuitum NCTC 10394 assessed as reduction in microbial growth incubated for 72 hrs by resazurin dye based broth microdilution method
[5] = system: Mycolicibacterium fortuitum; assay: Antibacterial activity against Mycobacterium fortuitum ATCC 6841 assessed as reduction in bacterial growth incubated for 72 hrs by Mueller-Hinton broth micro-dilution based assay
[6] = system: Mycolicibacterium fortuitum; assay: Antibacterial activity against Mycobacterium fortuitum ATCC 6841 assessed as bacterial growth inhibition incubated for 72 hrs by CLSI protocol based micro-dilution method
[7] = system: Mycolicibacterium fortuitum; assay: Antimycobacterial activity against Mycobacterium fortuitum ATCC 6841 assessed as reduction in microbial growth incubated for 72 hrs by resazurin dye based broth microdilution method

Work on `O=c1nc(N2CCN(CC3CCCCC3)CC2)sc2c([N+](=O)[O-])cc(C(F)(F)F)cc12` [MACOZINONE] yielded an MIC [1] of 0.022 µM (≈ 0.01 µg/mL).
For `N=C(N)N1N=C(/C=C/c2ccc(Cl)cc2)CC1c1ccc(Cl)cc1` (stereo not drawn), the MIC [2] was 0.43 µM (≈ 0.154 µg/mL).
For `COc1cccc(C(c2ccc(OCCN3CCCCC3)cc2)c2cccs2)c1` (stereo not drawn), the MIC [3] was 7.67 µM (≈ 3.13 µg/mL).
`CC(=O)c1c(O)c(C)c(O)c2c1OC1=CC(=O)C(C(C)=O)C(=O)C12C` (stereo not drawn) gave an MIC [3] of 0.15 µM (≈ 0.0516 µg/mL).
In the case of `C[n+]1ccc(-c2c3nc(c(-c4cc[n+](C)cc4)c4ccc([nH]4)c(-c4cc[n+](C)cc4)c4ccc([nH]4)c(-c4cc[n+](C)cc4)c4nc2C=C4)C=C3)cc1` [TMPYP4], the MIC [3] is reported as 50 µM.
`OCCCCCCCCN=C=S` was tested, and the MIC [1] was 21.4 µM (≈ 4 µg/mL) and the MIC [2] was 20 µM (≈ 3.74 µg/mL).
`CCN(CC)CCOc1ccc(C(c2ccc(F)cc2)c2cccs2)cc1` (stereo not drawn) was tested, and the MIC [3] was 16.3 µM (≈ 6.25 µg/mL).
Work on `CCOC(=O)/C=C\C(=O)c1ccc(C(C)(C)C)cc1` yielded an MIC [2] of 30.7 µM (≈ 8 µg/mL).
Work on `CC(=O)OCC1=CCc2c(cc(O)c3c(=O)cc(C)oc23)OC1` yielded an MIC [3] of 25.3 µM (≈ 8 µg/mL).
In the case of `O=c1ccc2nccc3c4ccccc4n1c23` [CANTHIN-6-ONE], the MIC [4] is reported as 72.7 µM.
In the case of `C[C@H](NC(=O)c1cc([N+](=O)[O-])cc([N+](=O)[O-])c1)c1ccccc1`, the MIC [2] is reported as 39.7 µM (≈ 12.5 µg/mL).
`CCOC(=O)/C=C/C(=O)c1cc2ccccc2s1` was tested, and the MIC [2] was 61.5 µM (≈ 16 µg/mL).
`COc1ccccc1/C=C/C1=NN(C(=N)N)C(c2ccccc2OC)C1` (stereo not drawn) showed an MIC [2] of 0.89 µM (≈ 0.312 µg/mL).
`C/C=C/c1cc(OC)c2oc(-c3ccc(O)c(OC)c3)c(C)c2c1` gave an MIC [1] of 0.15 µM (≈ 0.0487 µg/mL).
Compound `CCN(CC)CCCCOc1cc2oc3cc(OCCCCN(CC)CC)c(OC)c(CC=C(C)C)c3c(=O)c2c(OCCCCN(CC)CC)c1CC=C(C)C` has an MIC [3] of 15.8 µM (≈ 12.5 µg/mL).
For `COc1ccc(/C=C/C2=NN(C(=N)N)C(c3ccc(OC)cc3)C2)cc1` (stereo not drawn), the MIC [2] was 0.44 µM (≈ 0.154 µg/mL).
`CCCCCCCC/C=C\CCCCCCCC(=O)O` [OLEIC ACID] showed an MIC [5] of 56.6 µM (≈ 16 µg/mL).
Compound `CC(C)/N=c1\cc2n(-c3ccc(Cl)cc3)c3ccccc3nc-2cc1Nc1ccc(Cl)cc1` [CLOFAZIMINE] has an MIC [6] of 4.22 µM (≈ 2 µg/mL).
`C[C@@H]([C@H](NC(=O)[C@H](CC1CCCCC1)NC(=O)N[C@@H](Cc1c[nH]c2ccccc12)C(=O)NCC(C)(C)C)C(=O)NC[C@H]1C[C@@H](O)[C@H](n2ccc(=O)[nH]c2=O)O1)N(C)C(=O)CN` was tested, and the MIC [4] was 1 µM.
Work on `CC(=O)NC[C@H]1CN(c2ccc(N3CCOCC3)c(F)c2)C(=O)O1` [LINEZOLID] yielded an MIC [6] of 23.7 µM (≈ 8 µg/mL).
`COc1cc(/C=C/C2=NN(C(=N)N)C(c3cc(OC)c(OC)c(OC)c3)C2)cc(OC)c1OC` (stereo not drawn) was tested, and the MIC [2] was 5.31 µM (≈ 2.5 µg/mL).
In the case of `c1ccc2c(c1)[I+]c1ccccc1-2` [DIPHENYLENEIODONIUM CHLORIDE], the MIC [1] is reported as 0.4 µM.
`CC(C)N(CCOc1ccc(C(c2ccc(Cl)cc2)c2cccs2)cc1)C(C)C` (stereo not drawn) was tested, and the MIC [3] was 29.3 µM (≈ 12.5 µg/mL).
Compound `CC(C)(O)c1cc2c(o1)C(=O)c1ccccc1C2=O` [AVICEQUINONE C] has an MIC [1] of 48.8 µM (≈ 12.5 µg/mL).
Work on `CC(=O)O[C@@H]1[C@@H](OC(C)=O)[C@@H](O)[C@H](OC[C@]2(C)[C@@H](O)C[C@H](O)[C@]3(C)[C@H]4CC=C5[C@@H]6C[C@](C)(C(=O)O)CC[C@]6(C)CC[C@@]5(C)[C@]4(C)CC[C@@H]23)O[C@H]1C` yielded an MIC [2] of 17.1 µM (≈ 12.3 µg/mL).
`C=C[C@@H](O)C#CC#C[C@@H](O)/C=C\CCCCCCC` [FALCARINDIOL] was tested, and the MIC [5] was 30.4 µM (≈ 7.92 µg/mL).
Work on `Cc1cc(O)c2c(c1)C(=O)C=CC2=O` [RAMENTACEONE] yielded an MIC [1] of 0.12 µM (≈ 0.0226 µg/mL).
For `COc1ncc(-c2ccc(Cl)cc2)cc1[C@@H](c1ccccc1)[C@@](O)(CCN(C)C)c1cccc2ccccc12` [SUDAPYRIDINE], the MIC [7] was 15 µM.
`C[C@@H](OC(=O)c1cc([N+](=O)[O-])cc([N+](=O)[O-])c1)c1ccccc1` gave an MIC [2] of 4.94 µM (≈ 1.56 µg/mL).
For `COc1ncccc1Nc1cc2nc3ccccc3n(-c3ccc(OC(F)(F)F)cc3)c-2c/c1=N\C1CCC(OC)CC1` (stereo not drawn), the MIC [7] was 1.17 µM.
With `N#Cc1cc([N+](=O)[O-])cnc1SC(=S)N1CCCCC1` the MIC [1] was 5.05 µM (≈ 1.56 µg/mL).
With `N=C(N)N1N=C(/C=C/c2ccccc2)CC1c1ccccc1` (stereo not drawn) the MIC [2] was 0.54 µM (≈ 0.157 µg/mL).
For `COc1cc(O)cc(/C=C/c2cc3ccccc3s2)c1`, the MIC [2] was 56.7 µM (≈ 16 µg/mL).
With `COc1c(N2CCN(c3ccc(N4C[C@H](CNC(C)=O)OC4=O)cc3F)CC2)cnc2nccn12` the MIC [7] was 2.07 µM.
Compound `CN(C)c1ncnc(SC(=S)N2CCCC2)c1[N+](=O)[O-]` has an MIC [1] of 4.98 µM (≈ 1.56 µg/mL).
`O=c1ccc2nccc3c4cccc(O)c4n1c23` showed an MIC [4] of 67.7 µM.
Compound `CC(=O)O[C@@H]1[C@@H](O)[C@@H](O)[C@H](OC[C@]2(C)[C@@H](O)C[C@H](O)[C@]3(C)[C@H]4CC=C5[C@@H]6C[C@](C)(C(=O)O)CC[C@]6(C)CC[C@@]5(C)[C@]4(C)CC[C@@H]23)O[C@H]1C` has an MIC [2] of 29.3 µM (≈ 19.8 µg/mL).
`Cc1c(Cc2ccc(N3CCNCC3)cn2)cc(-c2ccc(Cl)cc2)n1-c1ccc(Cl)cc1` gave an MIC [2] of 16.8 µM (≈ 8.02 µg/mL).
In the case of `CC(C)CCn1cc(NC(=O)c2ccc3[nH]c(C(=O)Nc4cc(C(=O)Nc5ccc(C(=O)NCCN(C)C)n5C)n(CCC(C)C)c4)cc3c2)cc1C(=O)Nc1cc(C(=O)NCCN(C)C)n(C)c1`, the MIC [4] is reported as 5.2 µM.
Compound `Cc1c(Cc2ccc(N3CCNCC3)cc2C(F)(F)F)cc(-c2ccc(Cl)cc2)n1-c1ccc(Cl)cc1` has an MIC [2] of 7.35 µM (≈ 4 µg/mL).
Compound `Clc1ccc(C(c2ccc(OCCN3CCCCC3)cc2)c2cccs2)cc1` (stereo not drawn) has an MIC [3] of 3.79 µM (≈ 1.56 µg/mL).
Compound `N#Cc1cc([N+](=O)[O-])cnc1SC(=S)N1CCCC1` has an MIC [1] of 5.3 µM (≈ 1.56 µg/mL).
